From patent publication US20080063719A1, “Pharmaceutical Compositions” (Vectura Limited, priority 2004, published 2008)

Columns and labels:
Format in all cases: physicochemical
[1] = Particle sizing of micronised and conditioned glycopyrrolate batches, Example 7; conditions: micronised drug powder
Method: (§1) The effect of conditioning on micronised glycopyrrolate was investigated. An initial batch of glycopyrrolate ‘A’ was micronised at 9.8 bar with feed rate of 0.2 kg/hour. This material was then conditioned on a tray at 25° C./60% RH, with or without agitation/turning. Each of these powders was sized by Sympatec. The powders were then formulated using the method outlined in Example 4, as 20 μg dose in 25 mg powder with 0.15% magnesium stearate and loaded into gelatin capsules. The fine particle fraction was assessed by firing the capsules from a Miat MonoHaler device into a multi stage liquid impinger, using the method defined in the European Pharmacopoeia 4th Edition 2002. The fine particle fraction was defined here as the mass fraction smaller than 5 μm relative to the nominal dose.
as §1, with “A second” for “The effect of conditioning on micronised glycopyrrolate was investigated. An initial”, “‘B’” for “‘A’”, “0.3” for “0.2”, “powder” for “material was then conditioned on a tray at 25° C./60% RH, with or without agitation/turning. Each of these powders”, “powder was” for “powders were”
as §1, with “A third” for “The effect of conditioning on micronised glycopyrrolate was investigated. An initial”, “glycopyrtolate ‘C’” for “glycopyrrolate ‘A’”, “0.4” for “0.2”
as §1, with “A fourth” for “The effect of conditioning on micronised glycopyrrolate was investigated. An initial”, “‘D’” for “‘A’”, “8.8” for “9.8”, “0.4” for “0.2”, “powder” for “material was then conditioned on a tray at 25° C./60% RH, with or without agitation/turning. Each of these powders”, “powder was” for “powders were”
as §1, with “A fifth” for “The effect of conditioning on micronised glycopyrrolate was investigated. An initial”, “‘E’” for “‘A’”, “7.8” for “9.8”, “0.4” for “0.2”
(§2) Batches A1, C1 and E1 were not conditioned. Batches A2, C2 and E2 were conditioned at 25° C./60% RH and batches A3, C3 and E3 were conditioned at 25° C./60% RH with turning.

[2] = MSLI test of formulations made from micronisation trial batches, Example 7; conditions: 20 μg dose in 25 mg powder, 0.15% magnesium stearate, gelatin capsules
Method: as §1
as §1, with “A second” for “The effect of conditioning on micronised glycopyrrolate was investigated. An initial”, “‘B’” for “‘A’”, “0.3” for “0.2”, “powder” for “material was then conditioned on a tray at 25° C./60% RH, with or without agitation/turning. Each of these powders”, “powder was” for “powders were”
as §1, with “A third” for “The effect of conditioning on micronised glycopyrrolate was investigated. An initial”, “glycopyrtolate ‘C’” for “glycopyrrolate ‘A’”, “0.4” for “0.2”
as §1, with “A fourth” for “The effect of conditioning on micronised glycopyrrolate was investigated. An initial”, “‘D’” for “‘A’”, “8.8” for “9.8”, “0.4” for “0.2”, “powder” for “material was then conditioned on a tray at 25° C./60% RH, with or without agitation/turning. Each of these powders”, “powder was” for “powders were”
as §1, with “A fifth” for “The effect of conditioning on micronised glycopyrrolate was investigated. An initial”, “‘E’” for “‘A’”, “7.8” for “9.8”, “0.4” for “0.2”
as §2

[3] = Sympatec sizing of micronised glycopyrrolate batches, after micronisation and on storage; conditions: for Sympatec sizing d10 / Sympatec sizing d50 / Sympatec sizing d90: following micronisation
Description: (§3) Batches of micronised glycopyrrolate were obtained and, following sealed storage for several weeks, the physical changes of the material from fine cohesive powders to solid agglomerates were observed.
(§4) The following section summarises the tests conducted on reported batches of glycopyrrolate received following micronisation: […]

[4] = Loss on drying and water activity of micronised batches
Description: as §4

[5] = DVS (dynamic vapour sorption) moisture sorption analysis
Description: 100% amorphous glycopyrrolate was obtained by lyophilisation.

[6] = Observation of bulk powder after sealed storage; conditions: sealed storage for several weeks
Description: as §3, §4

Compound	D10 [1]	D50 [1]	D90 [1]	% FPD ([2]; T = 0)	MMAD ([2]; T = 0)	% FPD ([2]; T = 2 wks)	MMAD ([2]; T = 2 wks)	Sympatec sizing d10 [3]	Sympatec sizing d50 [3]	Sympatec sizing d90 [3]	Loss on drying [4]	Water activity [4]	DVS finding (crystalline or amorphous material) [5]	state of bulk powder on storage [6]	hygroscopicity ([5]; obtained by lyophilisation, confirmed by DVS at RH>0%)	d50 on repeated particle sizing ([3]; on storage)
C[N+]1(C)CCC(OC(=O)C(O)(c2ccccc2)C2CCCC2)C1.[Br-] (stereo not drawn) [Formulation E3]	1.23 μm	3.79 μm	7.85 μm	38.7%	3.2 μm	32.7%	3.7 μm	–	–	–	–	–	–	–	–	–
C[N+]1(C)CCC(OC(=O)C(O)(c2ccccc2)C2CCCC2)C1.[Br-] (stereo not drawn) [Batch B]	–	–	–	–	–	–	–	1.0 μm	2.4 μm	4.8 μm	0.6%	54 % RH	amorphous material was present	large hard lumps	–	–
C[N+]1(C)CCC(OC(=O)C(O)(c2ccccc2)C2CCCC2)C1.[Br-] (stereo not drawn) [Formulation A2]	1.22 μm	3.89 μm	10.02 μm	–	–	–	–	–	–	–	–	–	–	–	–	–
C[N+]1(C)CCC(OC(=O)C(O)(c2ccccc2)C2CCCC2)C1.[Br-] (stereo not drawn) [Remicronised Batch C]	–	–	–	–	–	–	–	1.0 μm	2.4 μm	4.5 μm	0.5%	–	–	only soft lumps	–	–
C[N+]1(C)CCC(OC(=O)C(O)(c2ccccc2)C2CCCC2)C1.[Br-] (stereo not drawn) [Formulation C3]	1.24 μm	3.97 μm	8.23 μm	39.9%	3.2 μm	37.9%	3.4 μm	–	–	–	–	–	–	–	–	–
C[N+]1(C)CCC(OC(=O)C(O)(c2ccccc2)C2CCCC2)C1.[Br-] (stereo not drawn) [Formulation A1]	0.81 μm	1.95 μm	3.68 μm	34.7%	2.8 μm	30.5%	3.2 μm	–	–	–	–	–	–	–	–	–
C[N+]1(C)CCC(OC(=O)C(O)(c2ccccc2)C2CCCC2)C1.[Br-] (stereo not drawn) [Formulation E1]	1.01 μm	2.47 μm	4.88 μm	39.9%	3.3 μm	33.3%	3.4 μm	–	–	–	–	–	–	–	–	–
C[N+]1(C)CCC(OC(=O)C(O)(c2ccccc2)C2CCCC2)C1.[Br-] (stereo not drawn) [Formulation A3]	1.24 μm	4.03 μm	9.78 μm	34.5%	2.8 μm	31.5%	3.1 μm	–	–	–	–	–	–	–	–	–
C[N+]1(C)CCC(OC(=O)C(O)(c2ccccc2)C2CCCC2)C1.[Br-] (stereo not drawn) [Formulation C2]	1.24 μm	3.76 μm	7.84 μm	39.2%	3.3 μm	34.0%	3.6 μm	–	–	–	–	–	–	–	–	–
C[N+]1(C)CCC(OC(=O)C(O)(c2ccccc2)C2CCCC2)C1.[Br-] (stereo not drawn) [amorphous glycopyrrolate]	–	–	–	–	–	–	–	–	–	–	–	–	–	–	very hygroscopic	–
C[N+]1(C)CCC(OC(=O)C(O)(c2ccccc2)C2CCCC2)C1.[Br-] (stereo not drawn) [Formulation C1]	0.95 μm	2.41 μm	4.83 μm	39.9%	3.9 μm	35.5%	4.0 μm	–	–	–	–	–	–	–	–	–
C[N+]1(C)CCC(OC(=O)C(O)(c2ccccc2)C2CCCC2)C1.[Br-] (stereo not drawn) [Batch A]	–	–	–	–	–	–	–	0.7 μm	1.8 μm	3.6 μm	0.7%	–	crystalline material	soft lumps	–	–
C[N+]1(C)CCC(OC(=O)C(O)(c2ccccc2)C2CCCC2)C1.[Br-] (stereo not drawn) [Formulation E2]	1.28 μm	3.61 μm	7.08 μm	–	–	–	–	–	–	–	–	–	–	–	–	–
C[N+]1(C)CCC(OC(=O)C(O)(c2ccccc2)C2CCCC2)C1.[Br-] (stereo not drawn) [Batch C]	–	–	–	–	–	–	–	0.8 μm	2.3 μm	4.8 μm	0.4%	–	amorphous material was present	large hard lumps	–	51 μm
